Experimental data taken from patent US12077503B2, “Substituted cyclic amides and their use as herbicides” (FMC CORPORATION, priority 2015, dated 2024).
Read-outs that look alike come from different tables or passages of the source.

Experiments:
Experiment in all cases: Test A preemergence
Type in all cases: in vivo
[1] = test system: ryegrass, Italian (Italian ryegrass, Lolium multiflorum); settings: Lolium multiflorum, pre-emergence, 240 h; for pest or weed control at 125 g/ha: 125 g ai/ha; for pest or weed control at 500 g/ha: 500 g ai/ha
Outline: (§1)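 Each rating is a visual injury score from 0 to 100 given about 10 d after treatment, judged against untreated controls kept alongside in the greenhouse. In loam soil–sand blend, seeds got a preemergence directed soil spray, while postemergence plants were 2 to 10 cm tall at spraying.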

[2] = test system: barnyardgrass (Echinochloa crus-galli); settings: Echinochloa crus-galli, pre-emergence, 240 h; for pest or weed control at 125 g/ha: 125 g ai/ha; for pest or weed control at 500 g/ha: 500 g ai/ha
Outline: as §1

[3] = test system: ragweed (common ragweed, Ambrosia elatior); settings: Ambrosia artemisiifolia, pre-emergence, 240 h; for pest or weed control at 125 g/ha: 125 g ai/ha; for pest or weed control at 500 g/ha: 500 g ai/ha
Outline: as §1

[4] = test system: giant foxtail (Setaria faberii); settings: Setaria faberi, pre-emergence, 240 h; for pest or weed control at 125 g/ha: 125 g ai/ha; for pest or weed control at 500 g/ha: 500 g ai/ha
Outline: as §1

Kochia (Kochia scoparia) = settings: Bassia scoparia, pre-emergence, 240 h; for pest or weed control at 125 g/ha: 125 g ai/ha; for pest or weed control at 500 g/ha: 500 g ai/ha
Outline: as §1

[5] = preemergence, 0 to 100 scale where 0 is no effect and 100 is complete control, approx. 10 d, read-out: Ryegrass, Italian plant response rating
[6] = preemergence, 0 to 100 scale where 0 is no effect and 100 is complete control, read-out: Ryegrass, Italian plant response rating
[7] = preemergence, 0 to 100 scale where 0 is no effect and 100 is complete control, approx. 10 d, read-out: Barnyardgrass plant response rating
[8] = preemergence, 0 to 100 scale where 0 is no effect and 100 is complete control, read-out: Barnyardgrass plant response rating
[9] = preemergence, 0 to 100 scale where 0 is no effect and 100 is complete control, approx. 10 d, read-out: Ragweed plant response rating
[10] = preemergence, 0 to 100 scale where 0 is no effect and 100 is complete control, read-out: Ragweed plant response rating
[11] = preemergence, 0 to 100 scale where 0 is no effect and 100 is complete control, approx. 10 d, read-out: Foxtail, Giant plant response rating
[12] = preemergence, 0 to 100 scale where 0 is no effect and 100 is complete control, read-out: Foxtail, Giant plant response rating
[13] = preemergence, 0 to 100 scale where 0 is no effect and 100 is complete control, approx. 10 d, read-out: Kochia plant response rating
[14] = preemergence, 0 to 100 scale where 0 is no effect and 100 is complete control, read-out: Kochia plant response rating
[15] = Preemergence, visual injury vs untreated controls after approximately 10 d, read-out: Ryegrass, Italian plant response rating (0 to 100 scale where 0 is no effect and 100 is complete control)
[16] = Preemergence, visual injury vs untreated controls after approximately 10 d, read-out: Barnyardgrass plant response rating (0 to 100 scale where 0 is no effect and 100 is complete control)
[17] = Preemergence, visual injury vs untreated controls after approximately 10 d, read-out: Ragweed plant response rating (0 to 100 scale where 0 is no effect and 100 is complete control)
[18] = Preemergence, visual injury vs untreated controls after approximately 10 d, read-out: Foxtail, Giant plant response rating (0 to 100 scale where 0 is no effect and 100 is complete control)
[19] = Preemergence, visual injury vs untreated controls after approximately 10 d, read-out: Kochia plant response rating (0 to 100 scale where 0 is no effect and 100 is complete control)
[20] = Preemergence, visual injury rating after approximately 10 d, read-out: Ryegrass, Italian plant response rating (0 to 100 scale, 0 is no effect, 100 is complete control)
[21] = preemergence, visual injury rating about 10 d after treatment, 0 to 100 scale (0 no effect, 100 complete control), read-out: Ryegrass, Italian plant response rating
[22] = Preemergence, visual injury rating after approximately 10 d, read-out: Barnyardgrass plant response rating (0 to 100 scale, 0 is no effect, 100 is complete control)
[23] = preemergence, visual injury rating about 10 d after treatment, 0 to 100 scale (0 no effect, 100 complete control), read-out: Barnyardgrass plant response rating
[24] = Preemergence, visual injury rating after approximately 10 d, read-out: Ragweed plant response rating (0 to 100 scale, 0 is no effect, 100 is complete control)
[25] = preemergence, visual injury rating about 10 d after treatment, 0 to 100 scale (0 no effect, 100 complete control), read-out: Ragweed plant response rating
[26] = Preemergence, visual injury rating after approximately 10 d, read-out: Foxtail, Giant plant response rating (0 to 100 scale, 0 is no effect, 100 is complete control)
[27] = preemergence, visual injury rating about 10 d after treatment, 0 to 100 scale (0 no effect, 100 complete control), read-out: Foxtail, Giant plant response rating
[28] = Preemergence, visual injury rating after approximately 10 d, read-out: Kochia plant response rating (0 to 100 scale, 0 is no effect, 100 is complete control)
[29] = preemergence, visual injury rating about 10 d after treatment, 0 to 100 scale (0 no effect, 100 complete control), read-out: Kochia plant response rating

Structure (SMILES) | pest or weed control at 125 g/ha [1, 6] [%] | pest or weed control at 500 g/ha [1, 15] [%] | pest or weed control at 125 g/ha [2, 8] [%] | pest or weed control at 500 g/ha [2, 16] [%] | pest or weed control at 125 g/ha [3, 10] [%] | pest or weed control at 500 g/ha [3, 17] [%] | pest or weed control at 125 g/ha [4, 12] [%] | pest or weed control at 500 g/ha [4, 18] [%] | pest or weed control at 125 g/ha (Kochia (Kochia scoparia); [14]) [%] | pest or weed control at 500 g/ha (Kochia (Kochia scoparia); [19]) [%] | pest or weed control at 125 g/ha [1, 20] [%] | pest or weed control at 500 g/ha [1, 21] [%] | pest or weed control at 125 g/ha [2, 22] [%] | pest or weed control at 500 g/ha [2, 23] [%] | pest or weed control at 125 g/ha [3, 24] [%] | pest or weed control at 500 g/ha [3, 25] [%] | pest or weed control at 125 g/ha [4, 26] [%] | pest or weed control at 500 g/ha [4, 27] [%] | pest or weed control at 125 g/ha (Kochia (Kochia scoparia); [28]) [%] | pest or weed control at 500 g/ha (Kochia (Kochia scoparia); [29]) [%] | further results
O=C1NC[C@H](c2ccc3c(c2)OCO3)[C@H]1C(=O)Nc1cccc(F)c1C(F)(F)F [Compound 1127] |  |  |  |  |  |  |  |  |  |  |  |  |  |  |  |  |  |  |  |  | pest or weed control at 125 g/ha [1, 5]: 0%; pest or weed control at 500 g/ha [1, 6]: 0%; pest or weed control at 125 g/ha [2, 7]: 0%; pest or weed control at 500 g/ha [2, 8]: 30%; pest or weed control at 125 g/ha [3, 9]: 0%; pest or weed control at 500 g/ha [3, 10]: 0%; pest or weed control at 125 g/ha [4, 11]: 0%; pest or weed control at 500 g/ha [4, 12]: 70%; pest or weed control at 125 g/ha (Kochia (Kochia scoparia); [13]): 0%; pest or weed control at 500 g/ha (Kochia (Kochia scoparia); [14]): 0%
COc1c(F)ccc([C@H]2CNC(=O)[C@@H]2C(=O)Nc2ccc(F)cc2F)c1Cl [Compound 883] | 0 | 20 | 90 | 90 | 0 | 0 | 60 | 90 | 30 | 60 |  |  |  |  |  |  |  |  |  |  | 
CN1C[C@H](c2cccc(F)c2)[C@@H](C(=O)Nc2ccccc2S(C)(=O)=O)C1=O [Compound 824] | 20 | 40 | 90 | 100 | 20 | 50 | 90 | 100 | 60 | 70 |  |  |  |  |  |  |  |  |  |  | 
O=C(Nc1ccccc1C(F)(F)F)[C@H]1C(=S)NC[C@@H]1c1ccc(C(F)(F)F)cc1 (racemic) [Compound 1049] |  |  |  |  |  |  |  |  |  |  | 0 | 30 | 30 | 70 | 20 | 40 | 80 | 90 | 30 | 70 | 
Cc1ccc([C@H]2CNC(=S)[C@@H]2C(=O)Nc2ccccc2F)cc1 (racemic) [Compound 945] |  |  |  |  |  |  |  |  |  |  | 0 | 0 | 60 | 90 | 0 | 0 | 0 | 70 | 0 | 0 | 
O=C1NC[C@H](c2ccc3c(c2)OCO3)[C@H]1C(=O)Nc1ccc(F)c(F)c1F [Compound 1027] |  |  |  |  |  |  |  |  |  |  | 30 | 0 | 90 | 90 | 70 | 80 | 40 | 90 | 80 | 90 | 
Cc1ccc([C@H]2CN(C)C(=O)[C@@H]2C(=O)Nc2cccc(F)c2F)cc1Cl [Compound 1013] |  |  |  |  |  |  |  |  |  |  | 30 | 70 | 90 | 90 | 0 | 0 | 90 | 90 | 50 | 70 | 
Cc1c(F)cccc1NC(=O)[C@H]1C(=O)NC[C@@H]1c1cc(F)c(F)c(F)c1 [Compound 1125] |  |  |  |  |  |  |  |  |  |  |  |  |  |  |  |  |  |  |  |  | pest or weed control at 125 g/ha [1, 5]: 0%; pest or weed control at 500 g/ha [1, 6]: 60%; pest or weed control at 125 g/ha [2, 7]: 90%; pest or weed control at 500 g/ha [2, 8]: 90%; pest or weed control at 125 g/ha [3, 9]: 0%; pest or weed control at 125 g/ha [4, 11]: 90%; pest or weed control at 500 g/ha [4, 12]: 100%; pest or weed control at 125 g/ha (Kochia (Kochia scoparia); [13]): 50%; pest or weed control at 500 g/ha (Kochia (Kochia scoparia); [14]): 80%
COc1c(F)ccc([C@H]2CN(C)C(=O)[C@@H]2C(=O)Nc2ccccc2S(C)(=O)=O)c1Cl [Compound 897] | 20 | 50 | 80 | 90 | 20 | 60 | 90 | 100 | 60 | 90 |  |  |  |  |  |  |  |  |  |  | 
Cc1ccc([C@H]2CNC(=S)[C@@H]2C(=O)Nc2cccc(F)c2F)cc1 (racemic) [Compound 946] |  |  |  |  |  |  |  |  |  |  | 0 | 0 | 60 | 80 | 0 | 0 | 0 | 20 | 0 | 50 | 
Cc1c(F)ccc([C@H]2CNC(=O)[C@@H]2C(=O)Nc2ccccc2S(C)(=O)=O)c1F [Compound 832] | 0 | 30 | 40 | 80 | 40 | 60 | 0 | 80 | 90 | 100 |  |  |  |  |  |  |  |  |  |  | 
